These results are taken from ChEMBL document CHEMBL1137135 (Bioorg Med Chem Lett, 2004).

Data set [1] in a line: Plasma clearance of compound was determined in rat. It counts as ADME, organism-based.
The species named for the next data set is Rattus norvegicus. Description: In vitro anticoagulant activity of compound was determined in rat. It is filed as functional.
Data set [2] in a line: Vz of compound was determined in rat. It is filed as ADME, organism-based. As to conditions: in vivo, read-out: Vz.
Data set [3] is described as follows: In vitro inhibitory activity against Factor Xa.
Data set [4] is described as follows: Half-life of compound was determined in rat. It counts as ADME. As to conditions: in vivo.
Data set [5] in a line: Binding affinity of compound towards Factor Xa.
Data set [6] in a line: Bioavailability in rat. It is filed as ADME, organism-based. As to conditions: in vivo.

Broadly, the clearance is the volume of plasma or blood freed of the substance per unit of time. Low readings indicate inefficient removal, high ones efficient removal. What is called IC50 is the midpoint of a concentration-inhibition curve. What is called half-life is the time needed for the level to fall by half in the phase considered. Low values mean rapid decline, high ones slow decline. One may read the Ki as the equilibrium dissociation constant of an inhibitor or competing ligand from its target. High values mean lower affinity, low ones higher affinity. One may read the bioavailability as dose-corrected exposure relative to a reference, in per cent. As for `CN(C)Cc1ccccc1-c1ccc(C(=O)N[C@@H](CC(=O)Nc2ccc(Cl)cn2)C(=O)N2CCCCC2)cc1`, in data set [1], the clearance stood at 124 mL/min/kg. Also, in the data set filed under Rattus norvegicus, the “2X PT” value was 3.6 µM and the “TG 2X lag” value is 0.96 µM. For the same compound, the Vd in data set [2] came to 59.2 L/kg. The midpoint of inhibition in data set [3], the IC50, lay at 2.9 nM. The half-life in data set [4] is 6.1 h. In data set [5], this compound had an inhibition constant Ki of 1 nM. The compound further gave a bioavailability in data set [6] of 7.9%.
As for `NS(=O)(=O)c1ccccc1-c1ccc(C(=O)NCCC(=O)Nc2ccc(Br)cn2)cc1`, the clearance in data set [1] came out at 35 mL/min/kg. Further, the “TG 2X lag” value in the data set filed under Rattus norvegicus stood at 14 µM. In addition, the Vd in data set [2] was found to be 5.4 L/kg. In addition, half-maximal inhibition in data set [3] (IC50) required 12 nM. This compound also gave a half-life in data set [4] of 1.77 h. In data set [5], the Ki came out at 7.55 nM. Further, the bioavailability in data set [6] stood at 2.67%.
In data set [1], `CN(C)Cc1ccccc1-c1ccc(C(=O)N[C@H](CC(=O)Nc2ccc(Cl)cn2)C(=O)N2CCCCC2)cc1` displayed a clearance of 178 mL/min/kg. Further, in the data set filed under Rattus norvegicus, the “2X PT” value is 1.74 µM and the “TG 2X lag” value came to 1 µM. In addition, the Vd in data set [2] came to 14 L/kg. In data set [3], this compound registered a half-maximal inhibitory concentration (IC50) of 1.7 nM. Besides, the half-life in data set [4] is 1.18 h. In data set [5], this compound showed an inhibitory constant (Ki) of 0.4 nM. Also, in data set [6], the bioavailability is 25.9%.
Turning to `NS(=O)(=O)c1ccccc1-c1ccc(C(=O)NC(CC(=O)Nc2ccc(Br)cn2)C(=O)N2CCCCC2)cc1` (stereo not drawn), in data set [1], the clearance stood at 50.6 mL/min/kg. Also, in the data set filed under Rattus norvegicus, the “2X PT” value worked out at 7 µM and the “TG 2X lag” value stood at 4.6 µM. Moreover, the Vd in data set [2] amounted to 5.9 L/kg. The compound also had a half-maximal inhibitory concentration (IC50) in data set [3] of 7.6 nM. Moreover, in data set [4], the half-life was 1.35 h. Further, affinity in data set [5] was put at a Ki of 1.36 nM. For the same compound, the bioavailability in data set [6] amounted to 2.7%.
On to `NS(=O)(=O)c1ccccc1-c1ccc(C(=O)NC(CC(=O)Nc2ccc(Br)cn2)C(=O)O)cc1` (stereo not drawn), for which, in data set [1], the clearance was 6.7 mL/min/kg. For the same compound, the “2X PT” value in the data set listed under Rattus norvegicus came to 74 µM. For the same compound, the Vd in data set [2] turned out to be 0.6 L/kg. This compound had an IC50 in data set [3] of 4.37 nM. The compound further showed a half-life in data set [4] of 1 h. This compound came in with a Ki in data set [5] of 1.72 nM. Further, the bioavailability in data set [6] worked out at 4%.
